Experimental data taken from paper PMC11416286 (Heliyon, 2024).

Target: Aβ (1-42) (Homo sapiens, UniProt P05067)
Assay: Thioflavin T fluorescence anti-aggregation assay with […] Aβ
Format: biochemical

Aβ (1-42), sequence (P05067 672-713): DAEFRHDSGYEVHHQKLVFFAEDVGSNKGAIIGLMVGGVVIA

Question: How did the IC50 turn out when `O=c1oc2c(O)c(O)cc3c(=O)oc4c(O)c(O)cc1c4c23` [EA, Ellagic acid] was run?
Answer: 8.01 ± 0.5 µM
